# Test system: Rh18 complex spheroid viability, percent test/control
# Assay: Anticancer human tumor Rh18 cell line growth inhibition [Asc];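 further: spheroids exposed to compound for 7 days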;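 on viability, T/C: 100% = DMSO vehicle control wells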
# Details: for IC50: curve of first compound; for viability, T/C: stronger effect = lower value
# In short: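 Tumor cells were grown as multicellular spheroids with stromal HUVEC and mesenchymal stem cells and treated singly or in combination. Concentrations fell in half-log steps from the clinical Cmax, or from 10 microM where none was known.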
# [1] = second compound 0.1 µM, first compound 0.00316 µM
# [2] = second compound 0.1 µM, first compound 0.01 µM
# [3] = second compound 0.1 µM, first compound 0.0316 µM
# [4] = second compound 0.1 µM, first compound 0.1 µM
# [5] = second compound 0.1 µM, first compound 0.316 µM
# [6] = second compound 0.1 µM, first compound 1 µM
# [7] = second compound 0.316 µM, first compound 0.00316 µM
# [8] = second compound 0.316 µM, first compound 0.01 µM
# [9] = second compound 0.316 µM, first compound 0.0316 µM
# [10] = second compound 0.316 µM, first compound 0.1 µM
# [11] = second compound 0.316 µM, first compound 0.316 µM
# [12] = second compound 0.316 µM, first compound 1 µM
# [13] = second compound 1 µM, first compound 0.00316 µM
# [14] = second compound 1 µM, first compound 0.01 µM
# [15] = second compound 1 µM, first compound 0.0316 µM
# [16] = second compound 1 µM, first compound 0.1 µM
# [17] = second compound 1 µM, first compound 0.316 µM
# [18] = second compound 1 µM, first compound 1 µM
# [19] = second compound 3.16 µM, first compound 0.00316 µM
# [20] = second compound 3.16 µM, first compound 0.01 µM
# [21] = second compound 3.16 µM, first compound 0.0316 µM
# [22] = second compound 3.16 µM, first compound 0.1 µM
# [23] = second compound 3.16 µM, first compound 0.316 µM
# [24] = second compound 3.16 µM, first compound 1 µM
# [25] = second compound 10 µM, first compound 0.00316 µM
# [26] = second compound 10 µM, first compound 0.01 µM
# [27] = second compound 10 µM, first compound 0.0316 µM
# [28] = second compound 10 µM, first compound 0.1 µM
# [29] = second compound 10 µM, first compound 0.316 µM
# [30] = second compound 10 µM, first compound 1 µM
smiles,measurement,setting,value
CCN1CCN(Cc2ccc(Nc3ncc(F)c(-c4cc(F)c5nc(C)n(C(C)C)c5c4)n3)nc2)CC1 + Cc1c(S(C)(=O)=O)c(-c2cc(F)cc(N3CCN(c4ccc(NS(=O)(=O)c5ccc(NC(CCN6CCC(C(=O)OCCCP(=O)(O)O)CC6)CSc6ccccc6)c(S(=O)(=O)C(F)(F)F)c5)cc4)CC3)c2)c(-c2ccc(Cl)cc2)n1C(C)C,IC50,second compound 0.1 µM,< 3.16 nM
same,IC50,second compound 0.316 µM,< 3.16 nM
same,IC50,second compound 1 µM,< 3.16 nM
same,IC50,second compound 3.16 µM,< 3.16 nM
same,IC50,second compound 10 µM,< 3.16 nM
same,"viability, T/C",[1],12.9%
same,"viability, T/C",[2],10.8%
same,"viability, T/C",[3],12.1%
same,"viability, T/C",[4],10.3%
same,"viability, T/C",[5],17.6%
same,"viability, T/C",[6],16.5%
same,"viability, T/C",[7],9.27%
same,"viability, T/C",[8],8.57%
same,"viability, T/C",[9],8.42%
same,"viability, T/C",[10],8.33%
same,"viability, T/C",[11],9.57%
same,"viability, T/C",[12],13.1%
same,"viability, T/C",[13],7.77%
same,"viability, T/C",[14],7.58%
same,"viability, T/C",[15],7.78%
same,"viability, T/C",[16],7.11%
same,"viability, T/C",[17],8.27%
same,"viability, T/C",[18],11.2%
same,"viability, T/C",[19],5.69%
same,"viability, T/C",[20],6.84%
same,"viability, T/C",[21],6.29%
same,"viability, T/C",[22],6.51%
same,"viability, T/C",[23],6.86%
same,"viability, T/C",[24],8.35%
same,"viability, T/C",[25],4.28%
same,"viability, T/C",[26],4.29%
same,"viability, T/C",[27],5.21%
same,"viability, T/C",[28],7.08%
same,"viability, T/C",[29],6.28%
same,"viability, T/C",[30],10.4%
COc1c(OCCCN2CCOCC2)ccc2c3n(c(=NC(=O)c4cnc(N)nc4)nc12)CCN3 + Cc1c(S(C)(=O)=O)c(-c2cc(F)cc(N3CCN(c4ccc(NS(=O)(=O)c5ccc(NC(CCN6CCC(C(=O)OCCCP(=O)(O)O)CC6)CSc6ccccc6)c(S(=O)(=O)C(F)(F)F)c5)cc4)CC3)c2)c(-c2ccc(Cl)cc2)n1C(C)C,IC50,second compound 0.1 µM,< 3.16 nM
same,IC50,second compound 0.316 µM,< 3.16 nM
same,IC50,second compound 1 µM,< 3.16 nM
same,IC50,second compound 3.16 µM,< 3.16 nM
same,IC50,second compound 10 µM,< 3.16 nM
same,"viability, T/C",[1],17.1%
same,"viability, T/C",[2],9.25%
same,"viability, T/C",[3],5.96%
same,"viability, T/C",[4],2.81%
same,"viability, T/C",[5],0.62%
same,"viability, T/C",[6],0.45%
same,"viability, T/C",[7],7.85%
same,"viability, T/C",[8],8.34%
same,"viability, T/C",[9],4.97%
same,"viability, T/C",[10],1.98%
same,"viability, T/C",[11],0.56%
same,"viability, T/C",[12],0.49%
same,"viability, T/C",[13],8.6%
same,"viability, T/C",[14],6.08%
same,"viability, T/C",[15],4.68%
same,"viability, T/C",[16],1.06%
same,"viability, T/C",[17],0.44%
same,"viability, T/C",[18],0.48%
same,"viability, T/C",[19],5.39%
same,"viability, T/C",[20],5.31%
same,"viability, T/C",[21],3.11%
same,"viability, T/C",[22],0.45%
same,"viability, T/C",[23],0.35%
same,"viability, T/C",[24],0.46%
same,"viability, T/C",[25],3.54%
same,"viability, T/C",[26],5%
same,"viability, T/C",[27],2.62%
same,"viability, T/C",[28],0.51%
same,"viability, T/C",[29],0.53%
same,"viability, T/C",[30],0.49%
NC(=O)C(=Cn1cnc(-c2cc(C(F)(F)F)cc(C(F)(F)F)c2)n1)c1cncnc1 + Cc1c(S(C)(=O)=O)c(-c2cc(F)cc(N3CCN(c4ccc(NS(=O)(=O)c5ccc(NC(CCN6CCC(C(=O)OCCCP(=O)(O)O)CC6)CSc6ccccc6)c(S(=O)(=O)C(F)(F)F)c5)cc4)CC3)c2)c(-c2ccc(Cl)cc2)n1C(C)C,IC50,second compound 0.1 µM,< 0.949 nM
same,IC50,second compound 0.316 µM,< 0.949 nM
same,IC50,second compound 1 µM,< 0.949 nM
same,IC50,second compound 3.16 µM,< 0.949 nM
same,IC50,second compound 10 µM,< 0.949 nM
same,"viability, T/C","second compound 0.1 µM, first compound 0.000949 µM",13.5%
same,"viability, T/C","second compound 0.1 µM, first compound 0.003 µM",16.7%
same,"viability, T/C","second compound 0.1 µM, first compound 0.00949 µM",18.6%
same,"viability, T/C","second compound 0.1 µM, first compound 0.03 µM",13.7%
same,"viability, T/C","second compound 0.1 µM, first compound 0.0949 µM",9.41%
same,"viability, T/C","second compound 0.1 µM, first compound 0.3 µM",5.69%
same,"viability, T/C","second compound 0.316 µM, first compound 0.000949 µM",15.2%
same,"viability, T/C","second compound 0.316 µM, first compound 0.003 µM",13.6%
same,"viability, T/C","second compound 0.316 µM, first compound 0.00949 µM",10.8%
same,"viability, T/C","second compound 0.316 µM, first compound 0.03 µM",9.84%
same,"viability, T/C","second compound 0.316 µM, first compound 0.0949 µM",9.11%
same,"viability, T/C","second compound 0.316 µM, first compound 0.3 µM",3.67%
same,"viability, T/C","second compound 1 µM, first compound 0.000949 µM",10.2%
same,"viability, T/C","second compound 1 µM, first compound 0.003 µM",9.49%
same,"viability, T/C","second compound 1 µM, first compound 0.00949 µM",8.9%
same,"viability, T/C","second compound 1 µM, first compound 0.03 µM",7.48%
same,"viability, T/C","second compound 1 µM, first compound 0.0949 µM",7.03%
same,"viability, T/C","second compound 1 µM, first compound 0.3 µM",2.37%
same,"viability, T/C","second compound 3.16 µM, first compound 0.000949 µM",7.63%
same,"viability, T/C","second compound 3.16 µM, first compound 0.003 µM",8.78%
same,"viability, T/C","second compound 3.16 µM, first compound 0.00949 µM",7.9%
same,"viability, T/C","second compound 3.16 µM, first compound 0.03 µM",5.11%
same,"viability, T/C","second compound 3.16 µM, first compound 0.0949 µM",4.79%
same,"viability, T/C","second compound 3.16 µM, first compound 0.3 µM",2.11%
same,"viability, T/C","second compound 10 µM, first compound 0.000949 µM",4.44%
same,"viability, T/C","second compound 10 µM, first compound 0.003 µM",6.25%
same,"viability, T/C","second compound 10 µM, first compound 0.00949 µM",6.34%
same,"viability, T/C","second compound 10 µM, first compound 0.03 µM",5.72%
same,"viability, T/C","second compound 10 µM, first compound 0.0949 µM",3.51%
same,"viability, T/C","second compound 10 µM, first compound 0.3 µM",1.84%
NC1CCC(NC2CC2c2ccccc2)CC1 (stereo not given) + Cc1c(S(C)(=O)=O)c(-c2cc(F)cc(N3CCN(c4ccc(NS(=O)(=O)c5ccc(NC(CCN6CCC(C(=O)OCCCP(=O)(O)O)CC6)CSc6ccccc6)c(S(=O)(=O)C(F)(F)F)c5)cc4)CC3)c2)c(-c2ccc(Cl)cc2)n1C(C)C,IC50,second compound 0.1 µM,< 0.316 nM
same,IC50,second compound 0.316 µM,< 0.316 nM
same,IC50,second compound 1 µM,< 0.316 nM
same,IC50,second compound 3.16 µM,< 0.316 nM
same,IC50,second compound 10 µM,< 0.316 nM
same,"viability, T/C","second compound 0.1 µM, first compound 0.000316 µM",13.1%
same,"viability, T/C","second compound 0.1 µM, first compound 0.001 µM",13.2%
same,"viability, T/C",[1],10.9%
same,"viability, T/C",[2],10.2%
same,"viability, T/C",[3],12.5%
same,"viability, T/C",[4],11.2%
same,"viability, T/C","second compound 0.316 µM, first compound 0.000316 µM",10.4%
same,"viability, T/C","second compound 0.316 µM, first compound 0.001 µM",9.84%
same,"viability, T/C",[7],8.02%
same,"viability, T/C",[8],8.28%
same,"viability, T/C",[9],8.54%
same,"viability, T/C",[10],8.22%
same,"viability, T/C","second compound 1 µM, first compound 0.000316 µM",6.65%
same,"viability, T/C","second compound 1 µM, first compound 0.001 µM",6.65%
same,"viability, T/C",[13],6.88%
same,"viability, T/C",[14],4.85%
same,"viability, T/C",[15],5.16%
same,"viability, T/C",[16],5.77%
same,"viability, T/C","second compound 3.16 µM, first compound 0.000316 µM",4.21%
same,"viability, T/C","second compound 3.16 µM, first compound 0.001 µM",3.65%
same,"viability, T/C",[19],3.75%
same,"viability, T/C",[20],3.61%
same,"viability, T/C",[21],3.49%
same,"viability, T/C",[22],4.43%
same,"viability, T/C","second compound 10 µM, first compound 0.000316 µM",2.72%
same,"viability, T/C","second compound 10 µM, first compound 0.001 µM",3.65%
same,"viability, T/C",[25],3%
same,"viability, T/C",[26],2.12%
same,"viability, T/C",[27],2.21%
same,"viability, T/C",[28],2.07%
O=C(c1ccc(F)c(F)c1Nc1ccc(I)cc1F)N1CC(O)([C@@H]2CCCCN2)C1 + Cc1c(S(C)(=O)=O)c(-c2cc(F)cc(N3CCN(c4ccc(NS(=O)(=O)c5ccc(NC(CCN6CCC(C(=O)OCCCP(=O)(O)O)CC6)CSc6ccccc6)c(S(=O)(=O)C(F)(F)F)c5)cc4)CC3)c2)c(-c2ccc(Cl)cc2)n1C(C)C,IC50,second compound 0.1 µM,< 3.16 nM
same,IC50,second compound 0.316 µM,< 3.16 nM
same,IC50,second compound 1 µM,< 3.16 nM
same,IC50,second compound 3.16 µM,< 3.16 nM
same,IC50,second compound 10 µM,< 3.16 nM
same,"viability, T/C",[1],14.8%
same,"viability, T/C",[2],13.6%
same,"viability, T/C",[3],17.2%
same,"viability, T/C",[4],11%
same,"viability, T/C",[5],6.6%
same,"viability, T/C",[6],1.12%
same,"viability, T/C",[7],9.21%
same,"viability, T/C",[8],11.2%
same,"viability, T/C",[9],11%
same,"viability, T/C",[10],8.03%
same,"viability, T/C",[11],4.04%
same,"viability, T/C",[12],0.96%
same,"viability, T/C",[13],8.77%
same,"viability, T/C",[14],14.6%
same,"viability, T/C",[15],6.89%
same,"viability, T/C",[16],7.25%
same,"viability, T/C",[17],3.29%
same,"viability, T/C",[18],0.52%
same,"viability, T/C",[19],7.36%
same,"viability, T/C",[20],7.93%
same,"viability, T/C",[21],7.81%
same,"viability, T/C",[22],5.28%
same,"viability, T/C",[23],1.59%
same,"viability, T/C",[24],0.38%
same,"viability, T/C",[25],5.3%
same,"viability, T/C",[26],4.85%
same,"viability, T/C",[27],4.39%
same,"viability, T/C",[28],2.53%
same,"viability, T/C",[29],1.08%
same,"viability, T/C",[30],0.6%

# Source: PubChem BioAssay AID1963431 (Molecular Pharmacology Branch, DTP, NCI, 2024)
